Target: T1, iNAP1
T1 construct: gene rex; 6xHis N-terminal, E. coli BL21(DE3) pLys
Assay: sensor fluorescence titration, excitation […] nm, emission […] nm
Type: binding
Conditions: 22 °C, in vitro, pseudocytosol medium pH 7.5, 0.5 μM sensor

`NC(=O)C1=CN([C@@H]2O[C@H](COP(=O)(O)OP(=O)(O)OC[C@H]3O[C@@H](n4cnc5c(N)ncnc54)[C@H](OP(=O)(O)O)[C@@H]3O)[C@@H](O)[C@H]2O)C=CC1` [NADPH] was tested, and the Kd was 300 nM.

Source: paper PMC7320160, “In planta study of photosynthesis and photorespiration using NADPH and NADH/NAD^+ fluorescent protein sensors” (Nature Communications, 2020)
